In patent publication US11331289B2, “Antimicrobial composition” (priority 2017, dated 2022):

What was measured:
[1] = test system: MRSA 16110; test: Time-killing curve, inoculum 10^6 CFU/ml (MIC 1 μg/ml); type: cell-based, Staphylococcus aureus
Method: (§1) The objective of this study is to assess in vitro the time-killing curves of oxyclozanide against four strains of Methicillin-Resistant Staphylococcus from dogs.
(§2) Two Methicillin-Resistant Staphylococcus aureus (MRSA) and two Methicillin-Resistant Staphylococcus pseudintermedius (MRSP) isolated from the clinics have been tested.
(§3) The assessment of time-killing curves has been realized by a broth macrodilution method (Mueller-Hinton II Broth).
(§4) Oxyclozanide is diluted in (DMSO) into sterile tubes in order to obtain the following concentrations from 800 to 6.25 μg/ml. Those concentrations and stock standard solution are then diluted (1/10) in Mueller-Hinton II Broth in order to obtain the following concentrations from […] (See Table 2).
(§5) Each operation is performed under sterile conditions. Each working standard solution (10*the final active ingredient concentration) is distributed in tubes (1 ml, for a final volume of 10 ml after addition of 9 ml of inoculum). One tube without active ingredient is used as growth control (Concentration=0).
(§6) Bacterial isolates are sub-cultured from one cryobead on Columbia agar supplemented with 5% of blood. Pure cultures are incubated during 18-24 hours at 37° C. Three to five isolated colonies of similar appearance are selected from a previous culture and transferred into tubes containing 9 ml of Mueller-Hinton II Broth. The broth is incubated during 12-18 hours at 37° C. 0.5 to 1 ml of this broth is inoculated to another Mueller-Hinton II Broth 9 ml tube which is incubated during 3 to 4 hours at 37° C. to reach the exponential growth phase. The bacterial inoculum grown exponential phase is suspended to an optical density of McFarland standard scale 0.5 equivalent to a bacterial density of 10^8 CFU/ml and then adjusted to a concentration of about 5.10^5 CFU/ml as indicated by the guideline CLSI M26-A and to a second inoculum tested: 10^6 CFU/ml.
(§7) 9 ml of bacterial inoculum grown to exponential phase is added to 1 ml of active ingredient (or Mueller Hinton II Broth for the growth control). Tubes are incubated at 35° C. during 24 hours.
(§8) At times 0, 2, 4, 6 and 24 hours, 100 μl of broth of each tube is sampled and diluted in microplates:
(§9) Each well is re-cultured by streaking 10 μl on Columbia agar supplemented with 5% of blood. Plates are incubated at 37° C. during 18-24 hours incubation. Thus, residual bacterial concentrations are determined (CFU/ml). Results are expressed in log10 values of CFU/ml over-time in broth. Due to the procedure used, the minimal bacterial concentration that can be assessed is 10^2 CFU/ml.

[2] = test system: MRSP 16125; test: Time-killing curve, inoculum 5.10^5 CFU/ml (MIC 0.5 μg/ml); type: cell-based, Staphylococcus pseudintermedius
Method: as §1, §2, §3, §4, §5, §6, §7, §8, §9

[3] = test system: Staphylococcus aureus; test: Time-killing curves, conclusion over strains; type: cell-based
Method: (§10) The time-killing curve is used to determine the bactericidal or bacteriostatic activity of the antibimicrobial substances. Time-killing curves of Oxyclozanide against canine isolates of Staphylococcus aureus and Staphylococcus pseudintermedius were obtained using broth macrodilution method. After contact of different fixed amounts of Oxyclozanide with an inoculum, viable bacteria are counted immediately after contact and after 1, 3, 6 and 24 hours. Counting is performed on agar medium without antimicrobial substance.
(§11) Results are analyzed by plotting log10 CFU/ml versus time for each tested concentration. Bactericidal activity as defined by 99.9% killing of the inoculum is determined from time-killing curves by noting the presence of a ≥3 log10 decrease in CFU/ml.
(§12) Bactericidal activity as defined by 99.9% killing of the inoculum is determined from time-killing curves by noting the presence of a ≥3 log10 decrease in CFU/ml.

[4] = test system: Staphylococcus pseudintermedius; test: Time-killing curves, conclusion over strains; type: cell-based
Method: as §10, §11, §12

O=C(Nc1cc(Cl)cc(Cl)c1O)c1c(O)c(Cl)cc(Cl)c1Cl [Oxyclozanide]
Counting results ([1]; 1 MIC, 0 h): 2.000E+06 CFU/ml
Counting results ([1]; 1 MIC, 2 h): 8.300E+04 CFU/ml
Counting results ([1]; 1 MIC, 4 h): 3.400E+04 CFU/ml
Counting results ([1]; 1 MIC, 6 h): 3.500E+03 CFU/ml
Counting results ([1]; 1 MIC, 24 h): 7.900E+06 CFU/ml
Counting results ([1]; 2 MIC, 0 h): 2.000E+06 CFU/ml
Counting results ([1]; 2 MIC, 2 h): 4.000E+02 CFU/ml
Counting results ([1]; 2 MIC, 4 h): 2.000E+02 CFU/ml
Counting results ([1]; 2 MIC, 6 h): 1.000E+02 CFU/ml
Counting results ([1]; 2 MIC, 24 h): 1.000E+02 CFU/ml
Counting results ([1]; 4 MIC, 0 h): 2.000E+06 CFU/ml
Counting results ([1]; 4 MIC, 2 h): 1.000E+02 CFU/ml
Counting results ([1]; 4 MIC, 4 h): 1.000E+02 CFU/ml
Counting results ([1]; 4 MIC, 6 h): 1.000E+02 CFU/ml
Counting results ([1]; 4 MIC, 24 h): 1.000E+02 CFU/ml
Counting results ([1]; 8 MIC, 0 h): 2.000E+06 CFU/ml
Counting results ([1]; 8 MIC, 2 h): 1.000E+02 CFU/ml
Counting results ([1]; 8 MIC, 4 h): 1.000E+02 CFU/ml
Counting results ([1]; 8 MIC, 6 h): 1.000E+02 CFU/ml
Counting results ([1]; 8 MIC, 24 h): 1.000E+02 CFU/ml
Counting results ([1]; 16 MIC, 0 h): 2.000E+06 CFU/ml
Counting results ([1]; 16 MIC, 2 h): 2.000E+02 CFU/ml
Counting results ([1]; 16 MIC, 4 h): 1.000E+02 CFU/ml
Counting results ([1]; 16 MIC, 6 h): 1.000E+02 CFU/ml
Counting results ([1]; 16 MIC, 24 h): 1.000E+02 CFU/ml
Time to obtain bactericidal effect at 4 MIC ([1]; 16110/10^6 CFU/ml, >=3 log10 decrease in CFU): 2 h
Counting results ([1]; ¼ MIC, 0 h): 2.000E+06 CFU/ml
Counting results ([1]; ¼ MIC, 2 h): 8.000E+06 CFU/ml
Counting results ([1]; ¼ MIC, 4 h): 4.000E+07 CFU/ml
Counting results ([1]; ¼ MIC, 6 h): 2.400E+07 CFU/ml
Counting results ([1]; ¼ MIC, 24 h): 4.100E+07 CFU/ml
Counting results ([1]; ½ MIC, 0 h): 2.000E+06 CFU/ml
Counting results ([1]; ½ MIC, 2 h): 6.900E+05 CFU/ml
Counting results ([1]; ½ MIC, 4 h): 4.300E+06 CFU/ml
Counting results ([1]; ½ MIC, 6 h): 4.800E+07 CFU/ml
Counting results ([1]; ½ MIC, 24 h): 3.700E+07 CFU/ml
Counting results ([2]; 1 MIC, 0 h): 4.000E+05 CFU/ml
Counting results ([2]; 1 MIC, 2 h): 2.600E+04 CFU/ml
Counting results ([2]; 1 MIC, 4 h): 1.900E+04 CFU/ml
Counting results ([2]; 1 MIC, 6 h): 1.300E+04 CFU/ml
Counting results ([2]; 1 MIC, 24 h): 6.000E+05 CFU/ml
Counting results ([2]; 2 MIC, 0 h): 4.000E+05 CFU/ml
Counting results ([2]; 2 MIC, 2 h): 1.000E+02 CFU/ml
Counting results ([2]; 2 MIC, 4 h): 3.000E+02 CFU/ml
Counting results ([2]; 2 MIC, 6 h): 1.000E+02 CFU/ml
Counting results ([2]; 2 MIC, 24 h): 2.000E+02 CFU/ml
Counting results ([2]; 4 MIC, 0 h): 4.000E+05 CFU/ml
Counting results ([2]; 4 MIC, 2 h): 1.000E+02 CFU/ml
Counting results ([2]; 4 MIC, 4 h): 1.000E+02 CFU/ml
Counting results ([2]; 4 MIC, 6 h): 1.000E+02 CFU/ml
Counting results ([2]; 4 MIC, 24 h): 1.000E+02 CFU/ml
Counting results ([2]; 8 MIC, 0 h): 4.000E+05 CFU/ml
Counting results ([2]; 8 MIC, 2 h): 1.000E+02 CFU/ml
Counting results ([2]; 8 MIC, 4 h): 1.000E+02 CFU/ml
Counting results ([2]; 8 MIC, 6 h): 1.000E+02 CFU/ml
Counting results ([2]; 8 MIC, 24 h): 1.000E+02 CFU/ml
Counting results ([2]; 16 MIC, 0 h): 4.000E+05 CFU/ml
Counting results ([2]; 16 MIC, 2 h): 1.000E+02 CFU/ml
Counting results ([2]; 16 MIC, 4 h): 1.000E+02 CFU/ml
Counting results ([2]; 16 MIC, 6 h): 1.000E+02 CFU/ml
Counting results ([2]; 16 MIC, 24 h): 1.000E+02 CFU/ml
Time to obtain bactericidal effect at 4 MIC ([2]; 16125/5.10^5 CFU/ml, >=3 log10 decrease in CFU): 2 h
Counting results ([2]; ¼ MIC, 0 h): 4.000E+05 CFU/ml
Counting results ([2]; ¼ MIC, 2 h): 5.500E+05 CFU/ml
Counting results ([2]; ¼ MIC, 4 h): 2.600E+06 CFU/ml
Counting results ([2]; ¼ MIC, 6 h): 1.600E+07 CFU/ml
Counting results ([2]; ¼ MIC, 24 h): 4.900E+10 CFU/ml
Counting results ([2]; ½ MIC, 0 h): 4.000E+05 CFU/ml
Counting results ([2]; ½ MIC, 2 h): 3.800E+05 CFU/ml
Counting results ([2]; ½ MIC, 4 h): 3.100E+05 CFU/ml
Counting results ([2]; ½ MIC, 6 h): 3.400E+05 CFU/ml
Counting results ([2]; ½ MIC, 24 h): 3.200E+08 CFU/ml
Pharmacodynamic profile [3]: concentration-dependant
Contact time at which bactericidal effect (≥3 log10 decrease in CFU/ml) is observed ([3]; concentration of 4 μg/ml): 24 hours
Contact time at which bactericidal effect (≥3 log10 decrease in CFU/ml) is observed ([3]; concentration of 8 μg/ml): 6 to 24 hours
Pharmacodynamic profile [4]: concentration-dependant
Contact time at which bactericidal effect (≥3 log10 decrease in CFU/ml) is observed ([4]; concentration of 4 μg/ml): 24 hours
Contact time at which bactericidal effect (≥3 log10 decrease in CFU/ml) is observed ([4]; concentration of 8 μg/ml): 6 to 24 hours
